Assay results published in PMC7425896, “Polypeptides derived from α-Synuclein binding partners to prevent α-Synuclein fibrils interaction with and take-up by cells” (PLoS ONE, 2020).
No end group written: not given here.

Experiments:
[1] = Secondary structure content by far-UV circular dichroism; assay type: physicochemical; conditions: far-UV CD, 20°C, deconvoluted with Dichroweb
Procedure: Far-UV CD spectra were recorded at 20°C using a JASCO J-810 dichrograph equipped with a thermostated cell holder using a 0.01-cm path length quartz cuvette. Each spectrum was the average of 10 acquisitions recorded in the 260–195 nm range with 0.5-nm steps, a bandwidth of 2 nm, and at a speed of 50 nm/min. All spectra were buffer corrected. The spectra were deconvoluted with the Dichroweb software.

αSyn fibrils = target: T1, αSyn fibrils (Homo sapiens, UniProt P37840); assay: Binding of peptides and Surfen to preformed αSyn fibrils, sedimentation and reversed phase chromatography; conditions: αSyn fibrils 100 μM; for Bound peptides / Bound peptides (%) / binding to αSyn fibrils (in words): ligand 200 μM, 1h RT, PBS; for Bound peptides / Bound peptides (%): pellet 20,000g, C18 reversed phase chromatography, absorbance 215 nm (peptides) or 260 nm (Surfen); for binding to αSyn fibrils (in words) / Kd: sedimentation, reversed phase chromatography; for Kd: peptide 0–200 μM
T1 construct: made in house
Procedure: Hsc70-derived peptides, the […] peptide or the Surfen molecule (0 or 200 μM) were incubated with or without αSyn fibrils (100 μM) for 1h at RT in PBS. The samples were centrifuged for 30 min in a […] tabletop centrifuge (Eppendorf) at 20,000g and 20°C. The pellets were first washed by 100 μL of 0.1% TFA and then dissolved for 30 min in 30 μL of pure TFA. After TFA evaporation, the samples were resuspended in 0.1% TFA and stored at -20°C. The composition of each sample was assessed by phase reverse chromatography on a C18 column (Jupiter C18 300A from Phenomenex, Torrance, CA, USA). The solvant composition was 0.1% TFA for solvent A and 80% acetonitrile, 0.09% TFA for solvent B, and the flow was set at 200 μl/min. The column was equilibrated in 5% B. The peptides were eluted by a gradient from 5% to 80% of solvent B. The amount of αSyn-associated ligand present in each sample was determined by comparing their respective absorbance at 215 nm (peptides) or 260 nm (Surfen) to the absorbance of a known amount of the same ligand. For KD measurements the same experiment was performed using a range of peptide concentrations (0-200 μM).

Neuro-2a cells [2] = assay: Internalization (take-up) of αSyn-Alexa488 fibrils by Neuro-2a cells, 96-well plate assay with Trypan blue quenching; assay type: cell-based, Murine; conditions: Trypan blue quench; for effect of endocytosis inhibitors on αSyn fibrils take-up by Neuro-2a cells: cells exposed 1 hour to chlorpromazine 0–10 μg/ml or EIPA 0–50 μM before αSyn-Alexa488 fibrils 0.5 μM, 4 hours, 5 wells
Procedure: The uptake of Alexa488-labeled αSyn fibrils (0.5 μM equivalent monomer concentration) pre-incubated or not for 30 min at 37°C in DMEM with the ligands (Hsc70, peptides or Surfen) at different concentrations to Neuro-2A cells was also assessed using a 96-well plate assay. The cells cultured on 96-wells plates were incubated with the fibrils, preincubated or not with the ligands for 30 min at 37°C in DMEM, in 5 independent wells. After 4 hours the media was removed and Hoechst (Sigma-Aldrich) diluted at 0.2 μg/ml in serum-free, phenol red-free DMEM was added for 30 min. The cells were washed twice with serum-free, phenol red-free DMEM and 0.1% Trypan Blue (Sigma-Aldrich) was added to quench the fluorescence of plasma membrane-bound Alexa488-labeled αSyn fibrils. For each wells Alexa488 and Hoechst fluorescences were recorded on a Clariostar microplate reader (BMG LABTECH GmbH, Germany).
To assess to role of endocytosis in αSyn fibrils internalization, Neuro-2a cells cultured on 96-wells plates were first incubated with increasing concentrations of chlorpromazine or l’5-N-ethyl-isopropyl-amiloride (EIPA). After 1 hour Alexa488-labeled αSyn fibrils (0.5 μM equivalent monomer concentration) was added. The experiment was then performed as above.

monomeric αSyn = assay: Monomeric αSyn assembly into fibrils monitored by Thioflavin T binding; assay type: biochemical, human; conditions: soluble αSyn 50 μM, peptide 50 μM (equimolar), PBS, 37°C, 600 rpm, 4 independent experiments
Procedure: αSyn (50 μM monomer concentration) was incubated in the absence or in the presence of peptides (50 μM) in PBS at 37°C under continuous shaking in an Eppendorf Thermomixer set at 600 rpm. Aliquots (10 μL) were withdrawn at different time intervals from the assembly reaction and mixed to a Thioflavin T solution (10 μM; 400 μL). Thioflavin T fluorescence was recorded with a Cary Eclipse spectrofluorimeter (Varian Medical Systems Inc.) using excitation and emission wavelengths set at 440 and 480 nm, respectively. The nature of the fibrils obtained at the end of the aggregation reaction was assessed by electron microscopy as described above. The proportion of αSyn assembled into fibrils was assessed by ultracentifugation in a TL100 tabletop centrifuge (Beckman) at 50,000g and 20°C for 30 min and analyse of the supernatant and pellet fractions by SDS-PAGE. Following Coomassie staining / destaining the gels were visualized using a ChemiDocTM MP (BioRad). Images were processed and quantified using Image Lab.

fibrillar αSyn [3] = conditions: sedimentation assay; read-out: dissociation constant of Hsc70 for fibrillar αSyn; cited from earlier work
Procedure: We previously brought evidence for Hsc70 interaction with fibrillar αSyn using a sedimentation assay. The dissociation constant we measured was 0.1 μM. Here we confirmed the interaction between Hsc70 and fibrillar αSyn using the same sedimentation assay followed by quantitative analysis of the proteins in the pellet and the supernatant fractions by SDS-PAGE (Fig 1A). […] To determine the affinity of Hsc70 for fibrillar αSyn we incubated preform ...

Neuro-2a cells [4] = assay: Binding of αSyn-Alexa488 fibrils to the plasma membrane of Neuro-2a cells; assay type: cell-based, Murine; conditions: αSyn-Alexa488 fibrils 1 μM pre-incubated with ligand (0–10 μM) in DMEM 30 min 37°C; cells exposed 30 min; % cells with at least 1 fluorescent foci
Procedure: Alexa488-labeled αSyn fibrils (1 μM equivalent monomer concentration) were first incubated for 30 min at 37°C in DMEM without or with the ligands (Hsc70 or the NKApep peptide) at different concentrations. Neuro-2a cells cultured on ibidi-μ-Dishes (ibidi, Martinsried, Germany) were then incubated for 30 min with this mix. Then, the cells were washed and immediately imaged in serum-free, phenol red-free DMEM on a Zeiss Axio Observer Z1 epifluorescence microscope equipped with an Incubator XLmulti S2 RED LS (Carl Zeiss) and an Orca-R2 camera (Hamamatsu) at a 20x magnification. The percentage of cells with bound Alexa488 foci was estimated by randomly counting at least 500 cells in 10–15 fields and the experiments were reproduced independently 3 times. For each field the number of foci was automatically assessed using the software Fiji and an in-house built plugin.

fibrillar αSyn [5] = assay: Sedimentation assay of Hsc70 with fibrillar αSyn, SDS-PAGE of pellet and supernatant; assay type: binding, human; conditions: Hsc70 10 μM, fibrillar αSyn 100 μM, 1h RT, PBS, 50,000g 30 min
Procedure: For binding assay, αSyn fibrils (100 μM) alone, Hsc70 alone (10 μM) or αSyn fibrils and Hsc70 (100 and 10 μM, respectively) were incubated for 1h at RT in PBS. Samples were spun for 30 min at 50,000g and 20°C in a TL100 tabletop ultracentrifuge (Beckman) and the proportion of Hsc70 present in the pellet vs the supernatant was analysed by SDS-PAGE.

Compound	Secondary structure composition other [1] [%]	Secondary structure composition α-helix [1] [%]	Secondary structure composition β-strand [1] [%]	Bound peptides (αSyn fibrils) [µM]	Bound peptides (%) (αSyn fibrils)	binding to αSyn fibrils (in words) (αSyn fibrils)	effect of endocytosis inhibitors on αSyn fibrils take-up by Neuro-2a cells (Neuro-2a cells [2])	effect on αSyn assembly into fibrils (monomeric αSyn)	Kd (αSyn fibrils) [µM]	effect on αSyn fibrils take-up by Neuro-2a cells (Neuro-2a cells [2]; ligand 2 or 10 μM with Alexa488-labeled αSyn fibrils 1 μM in DMEM 30 min 37°C, cells exposed 2 hours, 3 independent experiments)	Kd (fibrillar αSyn [3]) [µM]	effect on αSyn fibrils binding to Neuro-2a cells (Neuro-2a cells [4])	Hsc70 co-sedimentation with pre-formed αSyn fibrils (fibrillar αSyn [5])	effect on αSyn fibrils take-up by Neuro-2a cells (Neuro-2a cells [2]; αSyn-Alexa488 fibrils 0.5 μM pre-incubated with ligand 0–10 μM in DMEM 30 min 37°C, cells exposed 4 hours, plate reader)
NMKATVEDEKLQGKINDEDKQKIL [Hsc-3]	84	9	7	1.2	0.6	did not bind	–	–	–	–	–	–	–	–
CCN(c1nc(N)c(C(=O)N=C(N)N)nc1Cl)C(C)C [EIPA, l’5-N-ethyl-isopropyl-amiloride]	–	–	–	–	–	–	inhibited in a dose-dependent manner	–	–	–	–	–	–	–
GILNVSAVDKSTGKENKITITN [Hsc-10]	41	46	13	72	36	did bind	–	accelerated aggregation	> 100	–	–	–	–	–
GKFELTGIPPAPRGVPQIEVT [Hsc-8]	69	7	24	1.6	0.8	did not bind	–	–	–	–	–	–	–	–
CN(C)CCCN1c2ccccc2Sc2ccc(Cl)cc21 [chlorpromazine]	–	–	–	–	–	–	inhibited in a dose-dependent manner	–	–	–	–	–	–	–
VEDEKLQGKINDED [Hsc-2]	81	6	13	1.0	0.5	did not bind	–	–	–	–	–	–	–	–
FTTYSDNQPGV [Hsc-5]	85	0	15	2.8	1.4	did not bind	–	–	–	–	–	–	–	–
LSKEDIERMVQEAEKY [Hsc-1]	48	52	0	1.2	0.6	did not bind	–	–	–	–	–	–	–	–
Cc1cc(N)c2cc(NC(=O)Nc3ccc4nc(C)cc(N)c4c3)ccc2n1 [Surfen, reference compound]	–	–	–	176	88	found to bind to αSyn fibrils	–	–	–	affected, in a dose-dependent way, their take-up	–	–	–	–
Hsc70: molecular chaperone Hsc70, recombinant His6-tagged, full-length	–	–	–	–	–	–	–	–	–	–	0.1	affects αSyn fibrils binding to Neuro-2a cells in a dose-dependent manner	pulled into the pellet	significantly affected their take-up
TKQTQTFTTYSDNQPGVLIQVYE [Hsc-6]	80	0	20	68	34	did bind	–	significantly slowed down αSyn assembly into fibrils	> 100	–	–	–	–	–
LTGIPPAPRGVPQIE [Hsc-7]	73	10	17	1.2	0.6	did not bind	–	–	–	–	–	–	–	–
